Series [1] is described as follows: Kinetic solubility (nephelometry). The class given is physicochemical. As to conditions: 37 °C, aqueous buffer, kinetic from dmso stock; 1:99 DMSO/PSB buffer; PBS pH 7. On the procedure:
The solubility of selected compounds was evaluated by following a previously described method. A 10 mM stock solution of the compound was serially diluted in 100% DMSO and 2.5 μL of this solution was added to a 384-well UV-transparent plate (Greiner) containing 47.5 μL of PBS (pH = 7). The plate was incubated at 37 °C for 4 h and the light scattering was measured in a Nephelostar plus reader (BMG LABTECH). The data was fitted to a segmented linear regression for measuring the compound solubility.

Series [2] can be described thus: Human microsomal stability. As to conditions: for microsomal stability % remanent: Human, sampling time 60 min; for microsomal CLint / half-life: human, liver microsomes, pH 7.4; for half-life: read-out: microsomal stability t1/2. The class given is in vitro ADME. On the procedure: The human microsomal stability of selected compounds was evaluated by following a previously described method. The human microsomes employed were purchased from Tebu-Xenotech. The compound was incubated with the microsomes at 37 °C in a 50 mM phosphate buffer (pH = 7.4) containing 3 mM MgCl2, 1 mM NADP, 10 mM glucose-6-phosphate and 1 U/mL glucose-6-phosphate-dehydrogenase. Samples (75 μL) were taken from each well at 0, 10, 20, 40, and 60 min and transferred to a plate containing 4 °C 75 μL acetonitrile and 30 μL of 0.5% formic acid in water were added for improving the chromatographic conditions. The plate was centrifuged ([…], 30 min) and supernatants were taken and analyzed in an UPLC-MS/MS (Xevo-TQD, Waters) by employing a BEH C18 column and an isocratic gradient of 0.1% formic acid in water: 0.1% formic acid acetonitrile (60:40). The metabolic stability of the compounds was calculated from the logarithm of the remaining compounds at each of the time point studied.
In general terms: Liver microsomes are vesicles of endoplasmic reticulum, rich in cytochrome P450 enzymes.

Series [3] in a line: Mouse microsomal stability. The conditions noted are these: for microsomal stability % remanent: Mouse, sampling time 60 min; for microsomal CLint / half-life: mouse, microsomes, pH 7.4; for half-life: read-out: microsomal stability t1/2. The class given is in vitro ADME.
Series [4] can be described thus: Drug transport (BBB permeability) in Caco-2 monolayer. The class given is in vitro ADME. As to conditions: human; for efflux ratio at 120 min: Caco-2, bidirectional permeability ratio, read-out: P app (BA/AB); for Papp A→B at 120 min / Papp B→A at 120 min: Caco-2 monolayer, 1 × 10^–4 M. The procedure: To validate the early predictions from the CNS-MPO and BOILED-egg models (Figure ), we experimentally assessed the BBB permeability and P-gp interaction of the selected CB2R agonists. For these studies, two pairs of amide enantiomers (18p and 18o, 18e, and 18f) were selected, and the evaluations were conducted using established protocols previously published by our group. Key parameters measured included the permeability coefficients (P appBA and P appAB), the bidirectional permeability ratio (BA/AB), and the degree of interaction with P-gP, as detailed in Table .
Caco-2 cells were grown in Dulbecco’s high-glucose modified eagle medium, composed of 10% fetal bovine serum, 2 mM of glutamine, 100 U/mL of penicillin, and 0.1 mg/mL of streptomycin (all components purchased from Corning, Milan, Italy) in a humidified incubator at 37 °C with a 5% CO2 atmosphere. The experiment started with the preparation of the Caco-2 monolayer, which occurred by seeding the cells (20,000/well) in Millicell plates (Millipore, Milan, Italy). Its growth was followed for 21 days by changing the medium occasionally and measuring its transepithelial electrical resistance (TEER) daily using an epithelial voltohmmeter (Millicell-ERS) until a TEER value >240 ohms × cm^2 was reached. After 21 days, the plate was washed twice with Hank’s balanced salt solution (HBSS) (Invitrogen). After the second wash, the wells were filled with buffer, and the plate was kept at 37 °C for 30 min. After the incubation time, the HBSS buffer was replaced with the solutions of the compounds to be tested at a concentration of 1 × 10^–4 M. The plates were placed in an incubator at 37 °C for 120 min. The apparent permeability (P app), in units of nm s^–1, was calculated as previously reported. ,
On the technique in general: Passage across Caco-2 layers is used to estimate intestinal permeability.

In another series the target is CB1R (Homo sapiens, UniProt P21554). The series can be described thus: CB1R Gi protein-mediated cAMP inhibition assay. The format is cell-based. As to conditions: for functional selectivity ratio: CB1R vs CB2R cAMP EC50. The text has this: Given their excellent CB2R functional activity and ability to cross the blood–brain barrier, compounds 18p and 18o were selected for CB1R functional evaluation to assess potential risks of CB1R-mediated central effects. […] Full CB1R dose–response curves are provided in the Supporting Information (Figure S6).

≈ marks a conversion by molar mass, not a printed value.

Chain of CB1R (P21554 whole entry): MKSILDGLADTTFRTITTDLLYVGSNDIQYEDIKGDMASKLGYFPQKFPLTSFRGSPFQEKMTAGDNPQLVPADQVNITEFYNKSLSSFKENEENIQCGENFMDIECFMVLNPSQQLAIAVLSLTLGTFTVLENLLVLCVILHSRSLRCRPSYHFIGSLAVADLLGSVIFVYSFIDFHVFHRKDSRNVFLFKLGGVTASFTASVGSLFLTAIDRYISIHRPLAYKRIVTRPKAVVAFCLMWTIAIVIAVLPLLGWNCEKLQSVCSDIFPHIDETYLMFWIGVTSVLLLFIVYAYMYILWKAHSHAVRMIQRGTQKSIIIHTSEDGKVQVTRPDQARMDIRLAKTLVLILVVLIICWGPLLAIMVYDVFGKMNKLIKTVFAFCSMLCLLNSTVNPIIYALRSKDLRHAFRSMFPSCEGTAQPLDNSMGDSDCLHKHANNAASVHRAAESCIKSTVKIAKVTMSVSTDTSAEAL

A word on the solubility: it is the concentration that dissolves in the medium under given conditions. One may read the microsomal CLint as the rate of metabolic loss divided by the concentration. A higher microsomal CLint goes with faster metabolism. By Papp A→B is commonly meant how fast a substance crosses the layer from the apical side. A higher Papp A→B goes with ready permeation. A word on the Papp B→A: it is how fast a substance crosses the layer from the basolateral side. In the case of `NC(=O)[C@@H]1CCCCN1C(=O)c1cn(CC2CCCCC2)c2ccccc12` [18e], the concentration in solution in series [1] (solubility at 4 h) was 40.1 µM (≈ 14.7 µg/mL). Besides, in series [2], the “microsomal stability % remanent” value is on record as 15.9%, the microsomal CLint was 67.3 µL/min/mg and the half-life came to 19.4 min. Further, in series [3], the “microsomal stability % remanent” value worked out at 22.3%, the microsomal CLint was 54.3 µL/min/mg and the half-life was found to be 21.8 min. In addition, in series [4], the efflux ratio at 120 min was 0.51, the Papp A→B at 120 min was determined as 99.5 ×10⁻⁶ cm/s and the Papp B→A at 120 min was found to be 50.6 ×10⁻⁶ cm/s.
A word on the EC50: it is the concentration giving half of the maximal effect. Read a high EC50 as lower potency in that assay. As usually defined, the Emax is the size of the effect at its maximum, as opposed to the concentration needed. For `NC(=O)[C@H]1CCCCN1C(=O)c1nn(Cc2ccc(F)cc2)c2ccccc12` [18p], in series [4], the efflux ratio at 120 min is 0.35, the Papp A→B at 120 min stood at 63.2 ×10⁻⁶ cm/s and the Papp B→A at 120 min was 21.9 ×10⁻⁶ cm/s. Further, at CB1R, the midpoint of the response, the EC50, lay at 755 ± 31 nM; the Emax stood at 45%; the functional selectivity ratio came to 111.
Turning to `NC(=O)[C@@H]1CCCCN1C(=O)c1nn(Cc2ccc(F)cc2)c2ccccc12` [18o], the concentration in solution in series [1] (solubility at 4 h) came to 43.7 µM (≈ 16.6 µg/mL). Moreover, in series [2], the “microsomal stability % remanent” value stood at 59.6%, the microsomal CLint came out at 11.8 µL/min/mg and the half-life came out at 50.9 min. For the same compound, in series [3], the “microsomal stability % remanent” value came out at 28.4%, the microsomal CLint is 26.1 µL/min/mg and the half-life was found to be 28 min. Besides, in series [4], the efflux ratio at 120 min turned out to be 0.39, the Papp A→B at 120 min came to 72.7 ×10⁻⁶ cm/s and the basolateral-to-apical permeability (Papp B→A) at 120 min is 29 ×10⁻⁶ cm/s. Further, at CB1R, the EC50 worked out at 1070 ± 57 nM, the Emax worked out at 36% and the functional selectivity ratio was > 1780.
For the compound `NC(=O)[C@H]1CCCCN1C(=O)c1cn(CC2CCCCC2)c2ccccc12` [18f], in series [4], the efflux ratio at 120 min is 0.49, the Papp A→B at 120 min is 79.2 ×10⁻⁶ cm/s and the Papp B→A at 120 min worked out at 39.3 ×10⁻⁶ cm/s.
